Measured values reported in US9951040B2, “1,3,5 -triazine based PI3K inhibitors as anticancer agents and a process for the preparation thereof” (Council of Scientific and Industrial Research, priority 2014, dated 2018).
Like-named read-outs stand apart in the source and are kept apart here.

Biological target: PI3K alpha (Homo sapiens, UniProt P42336)
Test: PI3K-α assay (ADP-Glo enzyme inhibition)
Type: biochemical
Details: at 500 nm
Method: Compounds were evaluated for their ability to inhibit class I PI3-kinase enzyme alpha as given below. PI3K-α Assay: PI3K alpha (diluted in 12.5 mM Glycine-NaOH (pH 8.5), 50 mM KCl, 2.5 mM MgCl2, 1 mM DTT, 0.05% CHAPS) is assayed in total volume of 20 ul containing 12.5 mM glycine-NaOH (pH 8.5), 50 mM KCl, 2.5 mM MgCl2, 1 mM DTT, 0.05% CHAPS, 0.01 mM ATP and 0.05 mM diC8 PIP2. The enzyme is assayed for 80 min after which 20 ul of ADP-Glo reagent is added. After a further incubation of 40 min, 40 ul of Kinase Detection Buffer is added. The assays are incubated for 40 min and then read on PerkinElmer Envision for 1 sec/well.

[1] = read-out: In vitro PI3K α % of inhibition
[2] = read-out: inhibition against PI3K alpha

Sequence of PI3K alpha (P42336 whole entry, species assumed): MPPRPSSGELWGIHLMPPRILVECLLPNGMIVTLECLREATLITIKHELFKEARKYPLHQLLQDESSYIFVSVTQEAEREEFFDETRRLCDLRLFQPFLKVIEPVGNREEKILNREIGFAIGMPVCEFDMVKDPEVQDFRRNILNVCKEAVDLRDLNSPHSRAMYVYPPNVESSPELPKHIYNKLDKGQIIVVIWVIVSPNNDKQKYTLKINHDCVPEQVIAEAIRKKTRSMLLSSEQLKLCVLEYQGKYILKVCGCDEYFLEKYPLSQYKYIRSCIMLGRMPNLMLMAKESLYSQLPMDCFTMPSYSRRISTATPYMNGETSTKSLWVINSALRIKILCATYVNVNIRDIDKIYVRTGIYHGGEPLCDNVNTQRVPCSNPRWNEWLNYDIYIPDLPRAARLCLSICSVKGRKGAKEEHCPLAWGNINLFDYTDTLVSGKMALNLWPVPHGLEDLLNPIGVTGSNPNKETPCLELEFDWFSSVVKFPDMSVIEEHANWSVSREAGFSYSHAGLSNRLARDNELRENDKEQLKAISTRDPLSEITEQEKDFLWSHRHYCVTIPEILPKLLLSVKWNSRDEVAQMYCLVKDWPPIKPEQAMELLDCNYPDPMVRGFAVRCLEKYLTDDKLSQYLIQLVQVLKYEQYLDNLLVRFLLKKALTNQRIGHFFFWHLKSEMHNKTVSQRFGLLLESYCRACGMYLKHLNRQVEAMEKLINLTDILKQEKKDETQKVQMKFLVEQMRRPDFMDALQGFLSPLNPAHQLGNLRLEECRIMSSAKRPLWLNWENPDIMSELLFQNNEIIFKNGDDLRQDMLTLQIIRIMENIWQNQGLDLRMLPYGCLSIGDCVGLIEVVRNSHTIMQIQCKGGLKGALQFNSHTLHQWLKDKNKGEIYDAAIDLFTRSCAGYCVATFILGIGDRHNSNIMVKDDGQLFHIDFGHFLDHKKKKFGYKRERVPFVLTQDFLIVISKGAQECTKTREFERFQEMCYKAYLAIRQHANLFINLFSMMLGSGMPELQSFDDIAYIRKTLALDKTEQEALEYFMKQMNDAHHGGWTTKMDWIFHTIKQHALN
Sequence of PI3K alpha (P27986 whole entry partner, species assumed): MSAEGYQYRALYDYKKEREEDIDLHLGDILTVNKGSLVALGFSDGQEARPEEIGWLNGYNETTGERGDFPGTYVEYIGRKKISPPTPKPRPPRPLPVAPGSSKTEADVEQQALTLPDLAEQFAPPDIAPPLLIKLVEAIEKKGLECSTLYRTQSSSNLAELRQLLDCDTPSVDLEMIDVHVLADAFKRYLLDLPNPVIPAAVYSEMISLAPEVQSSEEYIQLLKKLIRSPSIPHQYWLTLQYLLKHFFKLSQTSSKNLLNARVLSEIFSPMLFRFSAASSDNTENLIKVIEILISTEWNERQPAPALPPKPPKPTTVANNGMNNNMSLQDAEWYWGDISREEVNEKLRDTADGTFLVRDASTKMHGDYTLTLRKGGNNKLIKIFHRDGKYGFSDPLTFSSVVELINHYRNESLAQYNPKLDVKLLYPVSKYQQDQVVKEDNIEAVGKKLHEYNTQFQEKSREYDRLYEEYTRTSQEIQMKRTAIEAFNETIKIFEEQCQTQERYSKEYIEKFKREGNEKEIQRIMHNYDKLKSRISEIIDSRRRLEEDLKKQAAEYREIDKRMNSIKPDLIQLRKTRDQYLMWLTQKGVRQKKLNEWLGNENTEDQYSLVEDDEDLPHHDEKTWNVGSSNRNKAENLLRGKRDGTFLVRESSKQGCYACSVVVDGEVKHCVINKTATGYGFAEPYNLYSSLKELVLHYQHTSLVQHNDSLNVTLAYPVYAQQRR

COc1ccc(NC2CCN(c3nc(N4CCOCC4)nc(-n4c(C(F)F)cc5ccccc54)n3)CC2)cc1 [1B47, 1-(4-(2-(difluoromethyl)-1H-indol-1-yl)-6-morpholino-1,3,5-triazin-2-yl)-N-(4-methoxyphenyl)piperidin-4-amine]
inhibition at 0.5 µM [1]: > 70%
inhibition at 0.5 µM [2]: > 70%

FC(F)(F)c1ccccc1OC1CCN(c2nc(N3CCOCC3)nc(N(c3ccccc3)c3ccccc3)n2)CC1 [1A19, 4-morpholino-N,N-diphenyl-6-(4-(2-(trifluoromethyl)phenoxy)piperidin-1-yl)-1,3,5-triazin-2-amine]
inhibition at 0.5 µM [1]: > 70%
inhibition at 0.5 µM [2]: > 70%

Cc1ccc(OC2CCN(c3nc(N4CCOCC4)nc(-n4c(C(F)F)nc5ccccc54)n3)CC2)cc1 [1B10, 4-(4-(2-(difluoromethyl)-1H-benzo[d]imidazol-1-yl)-6-(4-(p-tolyloxy)piperidin-1-yl)-1,3,5-triazin-2-yl)morpholine]
inhibition at 0.5 µM [1]: 50 to 70%

FC(F)c1nc2ccccc2n1-c1nc(N2CCOCC2)nc(N2CCC(Oc3ccccc3C(F)(F)F)CC2)n1 [1B4, 4-(4-(2-(difluoromethyl)-1H-benzo[d]imidazol-1-yl)-6-(4-(2-(trifluoromethyl)phenoxy)piperidin-1-yl)-1,3,5-triazin-2-yl)morpholine]
inhibition at 0.5 µM [1]: > 70%
inhibition at 0.5 µM [2]: > 70%

FC(F)c1nc2ccccc2n1-c1nc(N2CCOCC2)nc(N2CCC(Oc3ccc(OC(F)(F)F)cc3)CC2)n1 [1B3, 4-(4-(2-(difluoromethyl)-1H-benzo[d]imidazol-1-yl)-6-(4-(4-(trifluoromethoxy)phenoxy)piperidin-1-yl)-1,3,5-triazin-2-yl)morpholine]
inhibition at 0.5 µM [1]: 50 to 70%

Cc1ccc(OC2CCN(c3nc(N4CCOCC4)nc(-n4cnc5cc(F)ccc54)n3)CC2)cc1 [1B13, 4-(4-(5-fluoro-1H-benzo[d]imidazol-1-yl)-6-(4-(p-tolyloxy)piperidin-1-yl)-1,3,5-triazin-2-yl)morpholine]
inhibition at 0.5 µM [1]: 50 to 70%

Fc1ccc(OC2CCN(c3nc(N4CCOCC4)nc(-n4cnc5ccccc54)n3)CC2)cc1 [1B17, 4-(4-(1H-benzo[d]imidazol-1-yl)-6-(4-(4-fluorophenoxy)piperidin-1-yl)-1,3,5-triazin-2-yl)morpholine]
inhibition at 0.5 µM [1]: 50 to 70%

O=C(N(c1ccccc1)c1nc(N2CCOCC2)nc(N2CCC(Oc3ccccc3C(F)(F)F)CC2)n1)C(F)(F)F [1A10, 2,2,2-trifluoro-N-(4-morpholino-6-(4-(2-(trifluoromethyl)phenoxy)piperidin-1-yl)-1,3,5-triazin-2-yl)-N-phenylacetamide]
inhibition at 0.5 µM [1]: > 70%
inhibition at 0.5 µM [2]: > 70%

Fc1ccc(NC2CCN(c3nc(N4CCOCC4)nc(-n4cnc5ccccc54)n3)CC2)cc1 [1B37, 1-(4-(1H-benzo[d]imidazol-1-yl)-6-morpholino-1,3,5-triazin-2-yl)-N-(4-fluorophenyl)piperidin-4-amine]
inhibition at 0.5 µM [1]: > 70%
inhibition at 0.5 µM [2]: > 70%

Fc1ccc(N(c2ccc(Br)cc2)C2CCN(c3nc(N4CCOCC4)nc(-n4c(C(F)F)nc5ccccc54)n3)CC2)cc1 [1B42, N-(4-bromophenyl)-1-(4-(2-(difluoromethyl)-1H-benzo[d]imidazol-1-yl)-6-morpholino-1,3,5-triazin-2-yl)-N-(4-fluorophenyl)piperidin-4-amine]
inhibition at 0.5 µM [1]: > 70%
inhibition at 0.5 µM [2]: > 70%

FC(F)(F)Oc1ccc(NC2CCN(c3nc(N4CCOCC4)nc(-n4cnc5ccccc54)n3)CC2)cc1 [1B36, 1-(4-(1H-benzo[d]imidazol-1-yl)-6-morpholino-1,3,5-triazin-2-yl)-N-(4-(trifluoromethoxy)phenyl)piperidin-4-amine]
inhibition at 0.5 µM [1]: 50 to 70%

Fc1ccc(N(c2ccc(F)cc2)C2CCN(c3nc(N4CCOCC4)nc(-n4c(C(F)F)nc5ccccc54)n3)CC2)cc1 [1B41, 1-(4-(2-(difluoromethyl)-1H-benzo[d]imidazol-1-yl)-6-morpholino-1,3,5-triazin-2-yl)-N,N-bis(4-fluorophenyl)piperidin-4-amine]
inhibition at 0.5 µM [1]: > 70%
inhibition at 0.5 µM [2]: > 70%

Cc1ccc(NC2CCN(c3nc(N4CCOCC4)nc(-n4cnc5cc(F)ccc54)n3)CC2)cc1 [1B33, 1-(4-(5-fluoro-1H-benzo[d]imidazol-1-yl)-6-morpholino-1,3,5-triazin-2-yl)-N-(p-tolyl)piperidin-4-amine]
inhibition at 0.5 µM [1]: 50 to 70%

O=C(N(c1ccccc1)c1nc(N2CCOCC2)nc(N2CCC(Oc3ccc(C(F)(F)F)cc3)CC2)n1)C(F)(F)F [1A7, 2,2,2-trifluoro-N-(4-morpholino-6-(4-(4-(trifluoromethyl)phenoxy)piperidin-1-yl)-1,3,5-triazin-2-yl)-N-phenylacetamide]
inhibition at 0.5 µM [1]: 50 to 70%

Fc1ccccc1OC1CCN(c2nc(N3CCOCC3)nc(-n3cnc4ccccc43)n2)CC1 [1B18, 4-(4-(1H-benzo[d]imidazol-1-yl)-6-(4-(2-fluorophenoxy)piperidin-1-yl)-1,3,5-triazin-2-yl)morpholine]
inhibition at 0.5 µM [1]: > 70%
inhibition at 0.5 µM [2]: > 70%

CN(c1ccccc1)c1nc(N2CCOCC2)nc(N2CCC(Oc3ccc(F)cc3)CC2)n1 [1A1, 4-(4-(4-fluorophenoxy)piperidin-1-yl)-N-methyl-6-morpholino-N-phenyl-1,3,5-triazin-2-amine]
inhibition at 0.5 µM [1]: 50 to 70%

CN(C(=O)C(F)(F)F)c1nc(N2CCOCC2)nc(N2CCC(Oc3ccc(F)cc3)CC2)n1 [1A15, 2,2,2-trifluoro-N-(4-(4-(4-fluorophenoxy)piperidin-1-yl)-6-morpholino-1,3,5-triazin-2-yl)-N-methylacetamide]
inhibition at 0.5 µM [1]: > 70%
inhibition at 0.5 µM [2]: > 70%

Fc1ccc2c(c1)ncn2-c1nc(N2CCOCC2)nc(N2CCC(Oc3ccc(C(F)(F)F)cc3)CC2)n1 [1B14, 4-(4-(5-fluoro-1H-benzo[d]imidazol-1-yl)-6-(4-(4-(trifluoromethyl)phenoxy)piperidin-1-yl)-1,3,5-triazin-2-yl)morpholine]
inhibition at 0.5 µM [1]: 50 to 70%

Fc1cccc(OC2CCN(c3nc(N4CCOCC4)nc(-n4c(C(F)F)nc5ccccc54)n3)CC2)c1 [1B8, 4-(4-(2-(difluoromethyl)-1H-benzo[d]imidazol-1-yl)-6-(4-(3-fluorophenoxy)piperidin-1-yl)-1,3,5-triazin-2-yl)morpholine]
inhibition at 0.5 µM [1]: > 70%
inhibition at 0.5 µM [2]: > 70%

CN(c1ccccc1)c1nc(N2CCOCC2)nc(N2CCC(Oc3ccccc3F)CC2)n1 [1A2, 4-(4-(2-fluorophenoxy)piperidin-1-yl)-N-methyl-6-morpholino-N-phenyl-1,3,5-triazin-2-amine]
inhibition at 0.5 µM [1]: 50 to 70%

O=C(N(c1ccc(F)cc1)c1nc(N2CCOCC2)nc(N2CCC(Oc3ccc(F)cc3)CC2)n1)C(F)(F)F [1A6, 2,2,2-trifluoro-N-(4-(4-(4-fluorophenoxy)piperidin-1-yl)-6-morpholino-1,3,5-triazin-2-yl)-N-(4-fluorophenyl)acetamide]
inhibition at 0.5 µM [1]: > 70%
inhibition at 0.5 µM [2]: > 70%

Clc1ccccc1OC1CCN(c2nc(N3CCOCC3)nc(-n3cnc4ccccc43)n2)CC1 [1B19, 4-(4-(1H-benzo[d]imidazol-1-yl)-6-(4-(2-chlorophenoxy)piperidin-1yl)-1,3,5-triazin-2-yl)morpholine]
inhibition at 0.5 µM [1]: > 70%
inhibition at 0.5 µM [2]: > 70%

Clc1ccccc1NC1CCN(c2nc(N3CCOCC3)nc(-n3cnc4ccccc43)n2)CC1 [1B39, 1-(4-(1H-benzo[d]imidazol-1-yl)-6-morpholino-1,3,5-triazin-2-yl)-N-(2-chlorophenyl)piperidin-4-amine]
inhibition at 0.5 µM [1]: 50 to 70%
